Experimental data as given in patent US11474097B2, “Method of identifying a compound which affects the multienzyme metabolic assembly of glucose metabolism and its association with cell cycle progression in cancer cells” (UNIVERSITY OF MARYLAND, BALTIMORE COUNTY, priority 2018, dated 2022).
Where a name gives a salt, the structure may show the parent alone.

Columns and labels:
Format in all cases: cell-based, human
[1] = tested on: PFK1-mEGFP clustering in HeLa-T-PFK1G cells; assay: qHTS PFK1-mEGFP clustering assay with the LOKI library; details: for Curve class: LOKI screen; for PFK1-mEGFP clustering when the assay was repeated: repeat of the LOKI assay, FIGS. 8A-8C
Experimental: HeLa-T-PFK1G cells were plated in 1536-well black, clear bottom, low base microwell plates (Aurora Microplates, Inc.) at a density of 400 cells/well in DMEM supplemented with 10% dialyzed FBS, 1% Pen-Strep, and 1 μg/mL doxycycline. The cells were incubated at 37° C., 5% CO2, and 95% humidity for 16 hours. A qHTS assay was scaled to 4 μL volumes in 1536-well format in a semi-automated manner.
Second, the qHTS assay was carried out with the LOKI library (10 mM, 11-point 1:3 intra-plate titration). Again, 23 nL of compounds were transferred by a pintool (Kalypsys) in the final concentration range of 974 pM to 57.5 μM along with DMSO. […] The cells were then incubated overnight with small molecules. Approximately 24 hours later, the cells were fixed with 3.5% paraformaldehyde and nuclei were stained using a 1:1000 dilution of Hoechst dye for ˜20 minutes. Cells were washed and imaged with an INCell Analyzer 2000 or INCell Analyzer 2200 (GE Healthcare Life Sciences) as described above.
Images were processed in the GE Workstation software and analyzed with a multitarget analysis of fluorescence. Top-hat segmentation of the DAPI channel was used to identify nuclei with a minimum area of 100 μm^2 and sensitivity of 40 settings. Multiscale top-hat segmentation of the FITC channel was used to identify cells with a characteristic area of 200 μm^2 and sensitivity of 70 settings. This allowed for the identification of fluorescent cells from the background or dead cells. Following cell segmentation, the same FITC channel was analyzed with multiscale top-hat segmentation to identify PFK1-mEGFP clusters with a size range of 0.2-2 μm^2, number scales of 1, process parameters of 1 pixel, sensitivity of 40, and inclusions in the cytoplasm. A filter of object area, that is, the area of PFK1-mEGFP clusters, below 30 μm^2 and an advanced sensitivity range of 1.5, was also applied. A decision tree thresholding was developed to identify cells with PFK1 clusters with three nodes. The start node required a cell intensity above 110 GL, the second node required a PFK1 cluster count above 1, and the third node required the total area of the PFK1 cluster above 5 μm^2. Ultimately, this allowed for the identification of cluster-positive cells over non-clustering cells. The total number of cells with a total area of PFK1 clusters above 5 μm^2 (most stringent parameter) and the total number of cells with any PFK1 clusters were calculated with the above algorithm and normalized by plate to the 57.5 μM kenpaullone intra-plate control as previously described (Inglese et al., 2006). Assay effectiveness including S:N (the signal to noise ratio) and Z′ (the index of assay quality (Zhang et al., 1999)) were calculated for both parameters using the same respective control. Both parameters were normalized to the average signal of DMSO (vehicle)-treated wells as a zero percent neutral control and the average signal of 57.5 μM kenpaullone-treated wells as maximum PFK1-mEGFP clustering. Cell count based on the number of nuclei was used as a parameter of cytotoxicity, which was also normalized to the average signal of DMSO-treated wells as a zero percent neutral control and the average signal of 57.5 μM […]-treated wells as maximum PFK1-mEGFP clustering. The respective normalized data from each assay plate was corrected using DMSO only treated assay plates at the beginning and end of each library screen. In-house software (http://ncgc.nih.gov/pub/openhts/curvefit/) was used to fit the resulting intra-plate titration data to the standard Hill equation and concentration-response curves were classified by a titration curve as previously described (Southall et al.). Curve fits assignments of class 1.1, 1.2, 2.1 and 2.2s were considered active (i.e., promotion of the PFK1-mEGFP clusters) and visually confirmed.

[2] = tested on: PFK1-mEGFP clustering in HeLa-T-PFK1G cells; assay: High-resolution fluorescence microscopy of PFK1-mEGFP clustering
Experimental: A day before imaging, HeLa-T-PFK1G cells in RPMI1640 supplemented with 10% dialyzed FBS, 200 ug/ml G418 sulfate and 100 ug/ml hygromycin B, were plated in the presence of 1 μg/mL doxycycline to induce the expression of PFK1-mEGFP. On the day of imaging, the cells were washed three times with an imaging solution (20 mM HEPES (pH 7.4), 135 mM NaCl, 5 mM KCl, 1 mM MgCl2, 1.8 mM CaCl2) and 5.6 mM glucose) and allowed to adjust to ambient temperature for ˜45-60 minutes prior to small molecule treatments. Meanwhile, transiently transfected HeLa cells were imaged after being washed with the imaging solution after ˜24 hours following transfection. The cells were then treated with small molecules and incubated at 37° C. for the given time. All samples were imaged at ambient temperature (˜25° C.) with a 60×1.45 NA objective lens (Nikon CFI Plan Apo TIRF) using a Photometrics CoolSnap EZ monochrome CCD camera on a Nikon Eclipse Ti-inverted C2 confocal microscope.
Epifluorescence imaging was carried out using a set of Z488/10-FC cleanup, HC TIRF Dichroic and 525/50-HC emission filter from Chroma Technology. Images were acquired using NIS Elements (Nikon) and images were analyzed using an ImageJ freeware (National Institutes of Health).
Next, the 8 compounds were assessed for their ability to induce PFK1-mEGFP clustering under high-resolution fluorescence microscopy. HeLa-T-PFK1G cells were treated with 57.5 μM for 5 hours (FIGS. 2A and 2B) and 10 μM for 25 hours (FIGS. 2C and 2D). […] Quantitatively, SU9516 induced medium- and large-sized PFK1-mEGFP clustering in 26.6±12% of the cells at 57.5 μM for 5 hours, and in 40.0±16% of cells at 10 μM for 25 hours (see, e.g., FIGS. 2B and 2D, respectively).

[3] = tested on: transiently expressed PFK1-mEGFP in HeLa cells; assay: PFK1-mEGFP clustering in transiently transfected wild-type HeLa cells; details: 57.5 μM, 5 hours
Experimental: A day before transient transfection, wild-type HeLa cells were plated on either glass-bottomed 35 mm petri dishes (MatTek) or 8-well chambers (LabTek) in RPMI 1640 supplemented with 10% dialyzed FBS without antibiotics. The following day, HeLa cells were transfected with PFK1-mEGFP using Lipofectamine 2000 (Invitrogen Cat#11668019) in Opti-MEM I (ThermoFisher Cat#11058-021) and allowed to incubate in a HeraCell CO2 incubator (37° C., 5% CO2, and 95% humidity). Approximately 5 hours later, the medium was exchanged for fresh growth medium and incubated overnight in the CO2 incubator.
A day before imaging, HeLa-T-PFK1G cells in RPMI1640 supplemented with 10% dialyzed FBS, 200 ug/ml G418 sulfate and 100 ug/ml hygromycin B, were plated in the presence of 1 μg/mL doxycycline to induce the expression of PFK1-mEGFP. On the day of imaging, the cells were washed three times with an imaging solution (20 mM HEPES (pH 7.4), 135 mM NaCl, 5 mM KCl, 1 mM MgCl2, 1.8 mM CaCl2) and 5.6 mM glucose) and allowed to adjust to ambient temperature for ˜45-60 minutes prior to small molecule treatments. […]
As a control, PFK1-mEGFP was transiently transfected into wild-type HeLa cells and treated with SU9516. After 5 hours of treatment with 57.5 μM of SU9516, the promotion of medium- and large-sized clusters from small-sized clusters at single-cell levels were monitored (FIG. 4).

[4] = tested on: cell cycle progression of HeLa-T-PFK1G cells; assay: Cell cycle analysis by propidium iodide staining and flow cytometry; details: 10 μM, 24 hours
Experimental: FIG. 7A illustrates the effect of SU9516 on the cell cycle progression of HeLa-T-PFK1G cells. Cells received no small molecules or were treated with DMSO or 10 uM SU9516 and incubated for 24 hours. Then, cells were assessed for cell cycle progression by propidium iodide staining. The changes of the average percentage of cells in each cell cycle following incubation with an indicated compound are shown. Error bars represent the standard deviations of at least three trials and statistical significance was determined using student's two-tailed t test. HeLa-T-PFK1G cells were plated in 6-well plates for a confluency of 70-90% in RPMI1640 supplemented with 10% dialyzed FBS in the presence of 1 ug/mL doxycycline. The following day, the cells were treated with SU9516 or DMSO for 24 hours. The cells were then harvested and analyzed for the cell cycle progression as previously described (Crowley et al., 2016). Briefly, hundreds of thousands of cells were removed from 6-well plates using trypsin, washed with 1×PBS (pH 7.4), resuspended in ice-cold PBS and fixed with ice-cold methanol for 20 minutes at 4° C. The cells were then washed and resuspended in the cell cycle buffer, which contains 30 ug/mL propidium iodide and 100 μg/mL RNase A (Thermo Cat # EN0531) in 1×PBS (pH 7.4). After being incubated for at least 45 minutes, flow cytometry was performed with a CyAn ADP (Beckman Coulter) running Summit V 4.00, equipped with a 488 nm laser line and 530/40 and 613/20 emission filters. Using FlowJo (FlowJo, LLC), cell populations were gated based on the expression of PFK1-mEGFP in cells as well as their size and granularity. The cell cycle progression was then assessed by the Dean-Jett-Fox analysis using Cell Cycle platform available in FlowJo (Fox, 1980).

[5] = tested on: PFK1-mEGFP clustering in HeLa-T-PFK1G cells; assay: Resveratrol-induced clustering of PFK1-mEGFP (positive control, assay development); details: 200-250 μM, three hours
Experimental: Cells were treated with 200-250 μM resveratrol for three hours. Scale bar, 10 μm.

[6] = Table 5, CDK inhibitors that did not induce PFK1-mEGFP clustering
[7] = Table 4, inhibitors of the off-targets of SU9516
[8] = 10 μM, 24 hr, HeLa-T-PFK1G cells

## O=C(NC1CCNCC1)c1[nH]ncc1NC(=O)c1c(Cl)cccc1Cl [NCGC00263091-01]
[1]; [6]
  Curve class: −1.3

## CN1CCC[C@@H]1CCO[C@](C)(c1ccccc1)c1ccc(Cl)cc1 [clemastine fumarate, Clemastine fumarate]
[2]; 57.5 μM, 6 hr, HeLa-T-PFK1G cells
  cell morphology observed: protein localization and cell death

## CCS(=O)(=O)Nc1ccc2c(c1)/C(=C(/Nc1ccc(CN3CCCCC3)cc1)c1ccccc1)C(=O)N2 [NCGC00346542-01, Hesperadin]
[1]; [7]
  Curve class: 2.1

## CCc1ccc(NC(=O)c2[nH]c(C)c(C(C)=O)c2C)cc1S(=O)(=O)Nc1cccc(C#N)c1 [NCGC00345632-01]
[1]; [6]
  Curve class: −2.1

## CC(C)c1cnn2c(NCc3ccccc3)cc(NCCCCCCN)nc12 [NCGC00346553-01, BS-181]
[1]; [7]
  Curve class: 2.1
[1]
  PFK1-mEGFP clustering when the assay was repeated: did not promote PFK1-mEGFP clustering

## CC(=O)OC1C(C)OC(Oc2c(-c3ccc(O)cc3)oc3cc(O)cc(O)c3c2=O)C(O)C1OC(C)=O (stereo not drawn) [NCGC00346893-01, SL-0101-1]
[1]; [7]
  Curve class: 2.1
[1]; [6]
  Curve class: 4
[1]
  PFK1-mEGFP clustering when the assay was repeated: did not promote PFK1-mEGFP clustering

## Cn1c(=O)c(F)c(Nc2ccc(I)cc2F)c2c(=O)n(C[C@@H](O)CO)cnc21 [NCGC00263187-01]
[1]; [6]
  Curve class: −2.4

## COc1ccc2c(c1)/C(=C/c1cnc[nH]1)C(=O)N2 [SU9516, 3-[1-(3H-Imidazol-4-yl)-meth-(Z)-ylidene]-5-methoxy-1,3-dihydro-indol-2-one]
[2]; 10 μM for 25 hours
  percent of cells with medium- and large-sized PFK1-mEGFP clustering: 40.0±16%
[2]; 57.5 μM for 5 hours
  percent of cells with medium- and large-sized PFK1-mEGFP clustering: 26.6±12%
[2]; 57.5 μM for 5 hours and 10 μM for 25 hours
  ability to induce PFK1-mEGFP clustering under high-resolution fluorescence microscopy: capable of inducing PFK1-mEGFP clusters
[2]; Homo sapiens, titration for 25 hours, HeLa-T-PFK1G cells, read-out: EC50 with respect to PFK1-mEGFP clustering
  EC50: 6.8 µM
[3]
  promotion of medium- and large-sized PFK1-mEGFP clusters: capable of promoting PFK1-mEGFP clusters
[4]; 18.9%±[…] without compound
  population of cells in the G2 phase: 45.6%±1.9%
[4]; 21.5%±7.2% without compound
  population of cells in the S phase: 4.2%±2.4%
[4]; 54.7%±5.7% without compound, no significant change
  population of cells in the G1 phase: 48.4%±2.7%

## Clc1ccc(C(c2ccc(Cl)cc2)n2cc[n+](CC(OCc3ccc(Cl)cc3Cl)c3ccc(Cl)cc3Cl)c2)cc1 (stereo not drawn) [calmidazolium chloride, Calmidazolium chloride]
[2]; [8]
  cell morphology observed: vacuole-type artifact

## CC(=O)NCC(=O)N1[C@H]2CC[C@H]1c1cc(Nc3ncc(C(F)(F)F)c(NC4CCC4)n3)ccc12 [NCGC00346652-01, PF-03814735]
[1]; [7]
  Curve class: 2.1
[1]
  PFK1-mEGFP clustering when the assay was repeated: induced PFK1-mEGFP clustering

## CN1CCC(c2c(O)cc(O)c3c(=O)cc(-c4ccccc4Cl)oc23)C(O)C1 (stereo in doubt) [NCGC00250401-01]
[1]; [6]
  Curve class: 4

## Oc1ccc(C=Cc2cc(O)cc(O)c2)cc1 [resveratrol]
[5]
  percent of cells exhibiting medium- or large-sized clusters in the cytoplasm: 80-90%

## CC(=O)c1c(C)c2cnc(Nc3ccc(N4CCNCC4)cn3)nc2n(C2CCCC2)c1=O [NCGC00263129-01, Palbociclib]
[1]; [7]
  Curve class: 2.1

## Cn1cnc2c(NCc3ccccc3)nc(NCCO)nc21 [NCGC00015763-01]
[1]; [6]
  Curve class: 4

## C=CCc1cccc(/C=N/NC(=O)CN2CCN(Cc3ccccc3)CC2)c1O [PAC-1]
[2]; [8]
  cell morphology observed: vacuole-type artifact

## CC(O)(C#Cc1ccc2c(c1)N(c1nc(N)ncc1Cl)CC2)c1nccs1 (stereo not drawn) [NCGC00346747-02]
[1]; PFK1-mEGFP clustering vs log compound concentration, Table 3 hits
  Curve class: 2.1
